Reference: the C3SDB collision cross section collection
“And” between values parts separate entries of the source, which are not always exact repeats. Equal values may be shown once.

Legend:
[1] = instrument: DT, single field, calibrated with Agilent tune mix (Agilent)
[2] = instrument: DT, single field, calibrated with ESI Low Concentration Tuning Mix (Agilent)
[3] = [M+H]+; instrument: TW; calibrated with polyalanine and drug standards

Compound | collision cross section (N2) ([1]; [M+H]+) [Å²] | collision cross section (N2) ([1]; [M-H]-) | other results
NC(Cc1ccccc1O)C(=O)O (racemic) [DL-O-tyrosine] | 141.4 | 134.25 Å² | –
Cn1c(=O)[nH]c2[nH]c(=O)n(C)c2c1=O [1,7-Dimethyluric acid] | – | 134.06 Å² | –
CC(=O)[C@@H](O)[C@H](O)COP(=O)(O)O [1-Deoxy-D-xylulose 5-phosphate] | – | 134.48 Å² | collision cross section (N2) ([1]; [M+Na]+): 144.9 Å²
C[n+]1cccc(C(N)=O)c1 [1-Methylnicotinamide] | – | – | collision cross section (N2) ([1]; [M]+): 126.4 Å²
Nc1ccn([C@H]2C[C@H](O)[C@@H](COP(=O)(O)OP(=O)(O)O)O2)c(=O)n1 [2'-Deoxycytidine diphosphate] | – | 170.97 Å² | collision cross section (N2) ([1]; [M+Na]+): 174.5 Å²
Nc1nc(=O)c2ncn([C@H]3C[C@H](O)[C@@H](COP(=O)(O)O)O3)c2[nH]1 [2'-Deoxyguanosine 5'-monophosphate] | – | – | collision cross section (N2) ([1]; [M+Na-2H]-): 167.93 Å²; collision cross section (N2) ([1]; [M+Na]+): 169.7 Å²
O=c1nc[nH]c2c1ncn2[C@H]1C[C@H](O)[C@@H](COP(=O)(O)O)O1 [2'-Deoxyinosine 5'-monophosphate] | – | – | collision cross section (N2) ([1]; [M+Na-2H]-): 161.59 Å²; collision cross section (N2) ([1]; [M+Na]+): 166.8 Å²
CO[C@@H]1[C@H](O)[C@@H](CO)O[C@H]1n1cnc2c(N)ncnc21 [2'-O-methyladenosine] | – | 158.37 Å² | collision cross section (N2) ([1]; [M+Na]+): 168.7 Å²
O=C(O)CNC(=O)c1ccco1 [2-Furoylglycine] | – | 134.65 Å² | –
CC(C)C(O)C(=O)O (configuration not stated) [2-Hydroxy-3-methylbutyric acid] | – | 118.65 Å² | –
Nc1[nH]c(=O)nc2nc[nH]c12 [2-Hydroxyadenine] | 127 | 121.04 Å² | –
CC(C)C(O)(CC(=O)O)C(=O)O (configuration not stated) [2-Isopropylmalic acid] | – | 128.12 Å² | collision cross section (N2) ([1]; [M+Na]+): 140.9 Å²
CC(CCC(=O)O)C(=O)O (configuration not stated) [2-Methylglutaric acid] | – | 123.84 Å² | –
CO[C@H]1[C@@H](O)[C@H](n2cnc3c(=O)nc(N)[nH]c32)O[C@@H]1CO [3'-O-methylguanosine] | – | 163.78 Å² | collision cross section (N2) ([1]; [M+Na]+): 178.1 Å²
O=C(O)c1ccc([O-])c(O)c1 [3,4-Dihydroxybenzoate] | – | 120.45 Å² | –
Cn1c(=O)[nH]c(=O)c2c1[nH]c(=O)n2C [3,7-Dimethyluric acid] | – | 133.95 Å² | –
O=C(O)CCc1cccc(O)c1 [3-(3-Hydroxyphenyl)propanoic acid] | – | 136.11 Å² | –
Nc1c(O)cccc1C(=O)C[C@H](N)C(=O)O [3-Hydroxy-L-kynurenine] | – | – | collision cross section (N2) ([1]; [M+H-H2O]+): 137.5 Å²
O=C(O)c1cccc([O-])c1 [3-Hydroxybenzoate] | – | 125.4 Å² | –
CC(C)[C@H](C(=O)O)[C@@H](O)C(=O)O [3-Isopropylmalate] | – | 127.46 Å² | –

Compound | collision cross section (N2) ([1]; [M+H]+) [Å²] | collision cross section (N2) ([1]; [M-H]-) | other results
Cn1cncc1C[C@H](N)C(=O)O [3-Methylhistidine] | 134.1 | 134.37 Å² | –
Cn1c(=O)ccn([C@@H]2O[C@H](CO)[C@@H](O)[C@H]2O)c1=O [3-Methyluridine] | – | 166.84 Å² | collision cross section (N2) ([1]; [M+Na]+): 164.2 Å²
Cn1c(=O)[nH]c(=O)c2[nH]cnc21 [3-Methylxanthine] | – | 124.48 Å² | –
Nc1ccc(C(=O)[O-])cc1 [4-Aminobenzoate] | 140.4 | – | –
COc1ccc(/C=C/C(=O)O)cc1 [4-Methoxycinnamic acid] | 140.8 | 146.28 Å² | –
NC(=O)c1ncn([C@@H]2O[C@H](COP(=O)(O)O)[C@@H](O)[C@H]2O)c1N [5'-Phosphoribosyl-5-amino-4-imidazolecarboxamide] | 171.6 | 167.62 Å² | –
CC(O)CCCC(=O)O (configuration not stated) [5-Hydroxyhexanoic acid] | – | 125.8 Å² | –
NC(Cc1c[nH]c2ccc(O)cc12)C(=O)O (configuration not stated) [5-Hydroxytryptophan] | – | 149.2 Å² | collision cross section (N2) ([1]; [M+Na]+): 152.2 Å²
COc1ccc2[nH]cc(CCN)c2c1 [5-Methoxytryptamine] | – | 141.18 Å² | –
O=P(O)(O)OC[C@H]1O[C@H](OP(=O)(O)OP(=O)(O)O)[C@H](O)[C@@H]1O [5-Phospho-alpha-D-ribose 1-diphosphate] | – | – | collision cross section (N2) ([1]; [M+Na-2H]-): 161.1 Å²
C[C@]12CCC(=O)C[C@@H]1CC[C@@H]1[C@@H]2CC[C@]2(C)C(=O)CC[C@@H]12 [5alpha-Androstane-3,17-dione] | 180.6 | 174.32 Å² | –
Nc1nc(=O)c2c([nH]1)NCC(CNc1ccc(C(=O)N[C@@H](CCC(=O)O)C(=O)O)cc1)=N2 [7,8-Dihydrofolate] | 193.6 | 196.42 Å² | –
Cn1c[n+]([C@@H]2O[C@H](CO)[C@@H](O)[C@H]2O)c2[nH]c(N)nc(=O)c21 [7-Methylguanosine] | – | – | collision cross section (N2) ([1]; [M]+): 166.5 Å²
Cn1cnc2[nH]c(=O)[nH]c(=O)c21 [7-Methylxanthine] | 130.8 | 128.75 Å² | –
O=C(O)CCCCCCCCCCCCCCCO [16-Hydroxypalmitic acid] | – | 168.99 Å² | collision cross section (N2) ([1]; [M+Na]+): 178.2 Å²
CC(=O)[C@@]1(O)CC[C@H]2[C@@H]3CCC4=CC(=O)CC[C@]4(C)[C@H]3CC[C@@]21C [17alpha-Hydroxyprogesterone] | 183.4 | 183.75 Å² | –
O=C(O)CC[C@H](O)C(=O)O [(S)-2-Hydroxyglutarate] | – | 118.99 Å² and 119.14 Å² | –
Nc1ncnc2c1ncn2[C@@H]1O[C@H](COP(=O)(O)OP(=O)(O)O[C@H]2O[C@H](CO)[C@@H](O)[C@H](O)[C@H]2O)[C@@H](O)[C@H]1O [ADP-glucose] | 214.5 | – | –
Nc1ncnc2c1ncn2[C@@H]1O[C@H](COP(=O)(O)O)[C@@H](OP(=O)(O)O)[C@H]1O [Adenosine 3',5'-diphosphate] | 182.5 | – | collision cross section (N2) ([1]; [M-H2O-H]-): 179.49 Å²
C[n+]1cccc(C(=O)[O-])c1 [TRIGONELLINE] | – | – | collision cross section (N2) ([2]; [M+H]+): 124 Å²; collision cross section (N2) ([2]; [M+Na]+): 135.9 Å²; collision cross section (N2) [3]: 122.4 Å²
